For orientation: Km means the concentration of substrate that gives half-maximal velocity.

Data set [1] concerns the target T1, TvIPK (full length) (Terrestrivirus sp., UniProt A0A3G4ZNY6).
T1 construct: gene Terrestrivirus9_15; full-length, codon-optimized, E. coli BL21(DE3); N-terminal His6-MBP tag removed with TEV protease
T1 sequence (A0A3G4ZNY6 1-265): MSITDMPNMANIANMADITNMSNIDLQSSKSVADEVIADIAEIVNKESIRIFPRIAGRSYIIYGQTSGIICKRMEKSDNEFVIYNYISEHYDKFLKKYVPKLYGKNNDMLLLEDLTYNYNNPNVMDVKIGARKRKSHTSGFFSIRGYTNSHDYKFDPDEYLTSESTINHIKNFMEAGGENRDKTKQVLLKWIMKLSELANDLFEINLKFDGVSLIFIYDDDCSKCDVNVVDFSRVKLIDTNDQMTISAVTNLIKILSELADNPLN
Nature of the data set: X-ray crystal structure. Format: binding. Particulars: co-crystallised with 5 mM ADP, 10 mM MgCl2.

For data set [2], the target named is T2, TvIPK^17-265 (Terrestrivirus sp., UniProt A0A3G4ZNY6).
T2 construct: gene Terrestrivirus9_15; truncated crystallization construct, residues 17-265, E. coli; residues 17-47 not traced; one molecule per asymmetric unit
T2 sequence (A0A3G4ZNY6 17-265): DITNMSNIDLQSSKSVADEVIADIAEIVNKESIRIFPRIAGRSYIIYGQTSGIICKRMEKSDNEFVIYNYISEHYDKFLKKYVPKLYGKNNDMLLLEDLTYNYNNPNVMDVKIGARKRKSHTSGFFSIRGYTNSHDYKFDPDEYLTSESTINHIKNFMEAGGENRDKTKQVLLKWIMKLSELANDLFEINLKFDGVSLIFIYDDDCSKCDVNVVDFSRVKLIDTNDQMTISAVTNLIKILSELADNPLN
Nature of the data set: X-ray crystal structure. Particulars: Cd2+ in place of Mg2+, soaked 5 mM, Pi present. Format: binding.

Substrate in data set [3]: O=P(O)(O)O[C@H]1[C@H](OP(=O)(O)O)[C@@H](OP(=O)(O)O)[C@H](OP(=O)(O)O)[C@@H](OP(=O)(O)O)[C@H]1OP(=O)(O)O
Nature of the data set: HPLC of [3H]IP6 pyrophosphorylation. It counts as biochemical, Terrestrivirus sp. Particulars: 1 mM ATP, 3.5 mM MgCl2, pH 7.2, 25 °C, creatine kinase / creatine phosphate ATP regeneration, labelled compound.

Substrate in data set [4]: Nc1ncnc2c1ncn2[C@@H]1O[C@H](COP(=O)(O)OP(=O)(O)OP(=O)(O)O)[C@@H](O)[C@H]1O
Nature of the data set: HPLC with [gamma-33P]ATP. It counts as biochemical, Terrestrivirus sp. Particulars: 2 mM myo-IP6, 3.5 mM MgCl2, pH 7.2, 25 °C, labelled compound.

In the case of `Nc1ncnc2c1ncn2[C@@H]1O[C@H](COP(=O)(O)OP(=O)(O)O)[C@@H](O)[C@H]1O` [ADP], in data set [1], the X-ray crystal structure result is “in a binary complex of full-length TvIPK plus ADP”.

`Nc1ncnc2c1ncn2[C@@H]1O[C@H](COP(=O)(O)OP(=O)(O)NP(=O)(O)O)[C@@H](O)[C@H]1O` [AMP-PNP]: the X-ray crystal structure result in data set [2] was “We also derived crystal complexes with ATP and AMP-PNP”.

`Nc1ncnc2c1ncn2[C@@H]1O[C@H](COP(=O)(O)OP(=O)(O)OP(=O)(O)O)[C@@H](O)[C@H]1O` [ATP]: the X-ray crystal structure result in data set [2] (two ATP conformations) is “by making this substitution, we derived an ATP/TvIPK crystal complex”.

B1: TvIPK (full length) (Terrestrivirus sp.) (protein)
chain: T1 sequence (A0A3G4ZNY6 1-265)
notes: full-length, codon-optimized, E. coli BL21(DE3); N-terminal His6-MBP tag removed with TEV protease
For the molecule B1, the Km in data set [3] is 81 µM; in data set [4] it was 1600 µM.

Source of the values: article PMC10897400, “Biochemical and structural characterization of an inositol pyrophosphate kinase from a giant virus” (The EMBO Journal, 2024).
